Square brackets hold non-standard residues; d marks the D form. Peptide text beside a SMILES is read from it. * marks the point of attachment. Sta = CC(C)C[C@H](N)[C@@H](O)CC(=O)O; Isovaleryl = CC(C)CC(=O)*
How the values were obtained:
[1] = test system: mouse pancreatic islets; assay: Static incubation of isolated pancreatic islets, insulin secretion; type: cell-based; settings: for insulin secretory responses to 20 mM glucose in presence of other protease inhibitors: 100 μM inhibitor; for effect on basal or glucose-stimulated insulin secretion: 100 μM Cathepsin B Inhibitor II, 20 μM Lactacystin
Description: Static incubation of isolated pancreatic islets. Isolation of mouse pancreatic islets was accomplished using collagenase digestion as previously described (Pontoglio et al., 1998). […] Triplicate groups of 5 islets were then incubated in borosilicate tubes containing 1 ml of KRB with the same concentration of inhibitor and various insulin secretagogues for one hour in a moving water bath at 37° C. The reaction was stopped by placing the tubes on ice and an aliquot of the buffer was removed for measurement of insulin levels. Control studies, in which the incubation mixture contained vehicle (0.1% DMSO) only, were performed using aliquots of the same batch of islets
Assay methods. Insulin concentrations were measured by a double antibody radioimmunoassay using a rat insulin standard. The intra-assay coefficient of variation for this technique is 7%. All samples were assayed in duplicate.

[2] = test system: perifused mouse islets; assay: Insulin secretion from perifused islets; type: cell-based; settings: 4 hr preincubation; 100 μM ALLM, 200 μM E-64-d
Description: Insulin secretion from perifused islets. Insulin secretion from perifused islets was measured using a modification of a previously described protocol (Pontoglio et al., 1998; Sreenan et al., 1998).

[3] = test system: isolated β-cells; assay: Membrane capacitance recordings (exocytosis) in isolated β-cells; type: cell-based, mouse; settings: 4 days culture with inhibitor
Description: Isolation of pancreatic β-cells. Single β-cells were obtained from isolated islets dispersed by gentle trituration (120 strokes through a 200 μl pipette tip) in Ca^2+ and Mg^2+-free PBS containing […]. Cells were plated on glass coverslips and maintained in culture in RPMI containing 11.6 mM glucose for 48-96 hr.
Capacitance recordings. Capacitance measurements were made with the phase-tracking technique in which a 60 mV peak-to-peak sine wave was superimposed on a holding potential of −80 mV as previously described. Conductance and capacitance values were continuously generated and recorded. The whole-cell capacitance was canceled with the slow capacitance compensation; unbalancing the slow capacitance compensation by 100 fF provided the capacitance calibration signal used to calculate changes in membrane capacitance. The sinusoidal voltage template was interrupted to deliver depolarizations to a cell. Beta cells were stimulated with a train of ten step depolarizations to +20 mV (HP=−80 mV). Each step depolarization lasted 150 ms and was separated by 400 ms interpulse duration. Capacitance measurements were carried out in the perforated whole-cell configuration. The data were collected at a 500 μsec sampling rate and filtered at 5 kHz. Recordings with series resistance >20 MΩ were discarded. Series resistance compensation was applied in all recordings.
The recording solution for the capacitance measurements contained (in mM): 130 NaCl, 2 glucose, 10 Na-HEPES, 1 MgCl2, 2 KCl, and 5 CaCl2, pH 7.3 with NaOH. The pipette solution contained (in mM): 135 Cs-glutamate, 10 Na-HEPES, 9.5 NaCl, 0.5 TEACl, and 0.5 CaCl2, pH7.3 with CsOH. The pipettes were backfilled with an identical solution to which amphotericin B (final concentration of 0.5 mg/ml) was added and then sonicated. The amphotericin B stock solution (125 mg/ml) was kept frozen at −20° C. and used for one week. ALLM pre-treatment was as described above (see patch-clamp electrophysiology section). All electrophysiological recordings were carried out at room temperature (22-24° C.)

[4] = test system: mouse islets; assay: Measurement of islet [Ca2+]i (Fura-2); type: cell-based
Description: (§1) Measurement of islet [Ca^2+]i, and NAD(P)H. Islet [Ca^2+]i and NAD(P)H were measured as previously described (Pontoglio et al., 1998; Dukes et al., 1998).
Insulin secretory responses to glucose and most other secretagogues is mediated by a rise in intracellular free calcium ([Ca^2+]i). We therefore measured [Ca^2+]i responses to glucose, KIC and KCl using Fura-2 as the Ca^2+ indicator. In comparison to the responses from the control islets, the most prominent abnormality in [Ca^2+]i responses to glucose and KIC was a delay of the [Ca^2+]i responses (FIG. 21). The mean time interval between administration of 14 mM glucose and the point of half maximal response (T1/2.) was 120±14 seconds in control islets. […] There was no delay in the appearance of [Ca^2+]i response to KCl, nor was the magnitude of the response reduced.

[5] = test system: mouse islets; assay: Glucose utilization and oxidation rates in islets; type: cell-based
Description: Glucose utilization and oxidation rates. Glucose utilization and oxidation rates were measured as previously described (Dukes et al., 1998; Zhou et al., 1996) in mouse islets cultured as described above in the presence or absence of calpain inhibitors.

[6] = test system: mouse islets; assay: Islet NAD(P)H autofluorescence response; type: cell-based
Description: as §1

[7] = test system: calpain; assay: Calpain activity in mouse pancreatic islets (Boc-Leu-Met-CMAC cleavage); type: cell-based
[8] = test system: rat adipocytes; assay: 2-Deoxyglucose uptake into adipocytes; type: cell-based; settings: 100 μM ALLM or 200 μM E-64-d
Description: Adipocytes were isolated from epididymal fat pads of 3 month old male Wistar rats as described previously (Robdell, 1964) with the following modification: fat pads were minced to 1-2 mm pieces and incubated for ˜25 min at 37° C. with collagenase I (1 mg/ml, Worthington Biochemicals, Lakewood, N.J.) in KRB containing 10 mM Hepes (pH 7.4), 0.2% BSA and 2 mM sodium pyruvate. The cell suspension was filtered through a nylon mesh (134 μM, Spectrum Lab., Laguna Hills, Calif.) washed three times by floating and allowed to rest for 45 min in the KRB. […] Then another 50 μl of KRB containing 5 mM 2-DOG (final concentration 1 mM), 0.5 μCi of 2-deoxy-[2,6-^3H]glucose was added and cells were incubated for a further 5 min at 25° C. The transport was stopped by adding cytochalasin B (final concentration 50 μM) and cells were spun through 250 μl of dinonyl phthalate oil (Fisher Scientific, Pittsburgh, Pa.). Cells were then transferred to scintillation vials for counting.

[9] = test system: rat soleus muscle strips; assay: 2-Deoxyglucose uptake into soleus muscle strips; type: cell-based; settings: 100 μM ALLM or 200 μM E-64-d
Description: 2-Deoxyglucose uptake into skeletal muscle and adipose tissue. 2-deoxyglucose (2-DOG) uptake by isolated strips of soleus muscle from normal Wistar rats was measured using a modification of a previously described protocol (Burant et al., 1984). […] Muscles were then extracted and 2-DOG uptake calculated as previously described (Burant et al., 1984).

[10] = test system: soleus muscle strips; assay: Glycogen synthesis rates in skeletal muscle; type: cell-based, rat; settings: 100 μM ALLM or 200 μM E-64-d
Source text: Glycogen synthesis rates in skeletal muscle.

[11] = test system: islets; assay: Insulin content of islets after 48 h inhibitor exposure; type: cell-based, mouse; settings: 48 hours treatment

## CC(=O)N[C@@H](CC(C)C)C(=O)N[C@H](C(=O)N[C@H](C=O)CCCCN)C(C)C [Cath B Inhibitor II] (Ac-Leu-Val-Lys-aldehyde)
[1]
  insulin secretory responses to 20 mM glucose in presence of other protease inhibitors: not altered
[1]; 48 h
  effect on basal or glucose-stimulated insulin secretion: did not significantly affect

## CCOC(=O)[C@H]1O[C@@H]1C(=O)N[C@@H](CC(C)C)C(=O)NCCC(C)C [E-64-d, ethyl (+)-(2S,3S)-3-[(S)-3-Methyl-1-(3-methylbutylcarbamoyl)butyl-carbamoyl]-2-oxiranecarboxylate]
[1]; 48-h treatment, then 2 days recovery without inhibitor
  insulin secretory response to 20 mM glucose after recovery: essentially normal insulin secretory response
[1]; 4 hr exposure, ALLM 250 μM, E-64-d 200 μM, 2 mM glucose
  effect on insulin secretion at 2 mM glucose: not observed
[1]; 48 hours exposure
  basal insulin secretion (2 mM glucose) vs control-treated islets: no significant difference
[1]; 48 h treated islets
  insulin secretory response to 30 mM KCl: significantly reduced
  insulin secretory response to carbachol: attenuated
  insulin secretory response to glyceraldehyde: responded normally
  insulin secretory response to mastoparan: attenuated
  insulin-secretory response to keto-isocaproic acid (KIC): decreased
[1]; isolated mouse islets, introductory summary, no conditions given
  insulin secretory responses to glucose (summary statement of Example 8): increase in glucose induced insulin secretion
[2]
  enhancement of insulin secretory response to 20 mM glucose in dynamic islet perifusion: also observed
[3]
  rates of exocytosis in β-cells: significantly lower rates of exocytosis
[4]; 4 hr preincubation, 14 mM glucose
  [Ca2+]i response to high glucose: not associated with increases in [Ca^2+]i
[4]; 48 h treated islets
  [Ca2+]i response to glucose ramp (2 to 26 mM over 48 mins): diminished
  [Ca2+]i responses to 30 mM KCl vs control: not different
  integrated [Ca2+]i responses (area under the curves) to glucose and KIC vs control: significantly smaller
[4]; 48 h treated islets, control 120±14 seconds
  T1/2 of [Ca2+]i response to 14 mM glucose (time to half maximal response): 4.42 ± 1.08 min
[4]; 48 h treated islets, control 125±9
  T1/2 of [Ca2+]i response to KIC: 5.5 ± 0.12 min
[5]; 2 mM glucose, 100 μM ALLM or 200 μM E-64-d, 4 h
  rate of glucose utilization at basal glucose: 15.5±4 pmol/islet/hr
[5]; 20 mM glucose, 100 μM ALLM or 200 μM E-64-d, 4 h
  rate of glucose utilization at stimulatory glucose: 79.5±9.5 pmol/islet/hr
[5]; 48 h treated islets
  rate of basal glucose utilization and oxidation at 3.3 mM glucose: no significant changes
[5]; 48 h treated islets vs controls
  rates of glycolysis and glucose oxidation at stimulating concentrations of glucose: significantly reduced
[5]; basal glucose, ALLM or E-64-d, 4 h
  glucose oxidation rate at basal glucose: 5.2±0.4 pmol/islet/hr
[5]; stimulatory glucose, ALLM or E-64-d, 4 h
  glucose oxidation rate at stimulatory glucose: 40.0±2.4 pmol/islet/hr
[6]; 100 μM ALLM or E-64-d, 4 hr preincubation
  NAD(P)H response to increase in glucose from 2 to 14 mM: 2.8±0.3 fold increase
[6]; 48 h treated islets
  NAD(P)H responses to KIC vs control: significantly reduced
  NAD(P)H responses to glucose vs control: comparable
[7]; 200 μM inhibitor, 4 hr incubation
  area under the curve of rate of generation of fluorescent calpain product: 45±5 % of control values
[7]; 48 h treatment, 100 μM ALLM or 200 μM E-64-d
  residual calpain activity in intact islets: 55±4 % of control treated islets
[8]; insulin 12 nmol/L
  2-DOG uptake into adipocytes with insulin: 749±129 pmol/2×10^5 cells/5 min
[8]; no insulin
  2-DOG uptake into adipocytes without insulin: 361±29 pmol/2×10^5 cells/5 min
[9]; insulin 12 nM
  2-deoxyglucose uptake into soleus muscle strips with insulin: 0.36±0.02 (mol/ml H20/30 mins
[9]; no insulin
  2-deoxyglucose uptake into soleus muscle strips without insulin: 0.31±0.02 (mol/ml H20/30 mins
[10]; insulin 6 nM
  magnitude of insulin-induced increase in muscle glycogen synthesis: 0.31±0.09 nmol glucose/mg/hr
  rate of muscle glycogen synthesis with insulin: 0.80±0.14 nmol glucose/mg/hr
[10]; no insulin
  rate of muscle glycogen synthesis without insulin: 0.49±0.08 nmol glucose/mg/hr
[11]
  insulin content in islets vs control islets: comparable

## CC(=O)N[C@@H](CSC(=O)[C@]1([C@@H](O)C(C)C)NC(=O)[C@H](C)[C@@H]1O)C(=O)O [Lactacystin]
[1]; 48 h
  effect on basal or glucose-stimulated insulin secretion: did not significantly affect

## CC(C)CC(=O)N[C@H](C(=O)N[C@H](C(=O)N[C@@H](CC(C)C)[C@@H](O)CC(=O)N[C@@H](C)C(=O)N[C@@H](CC(C)C)[C@@H](O)CC(=O)O)C(C)C)C(C)C [pepstatin A] (Isovaleryl-VV[Sta]A[Sta]-OH)
[1]
  insulin secretory responses to 20 mM glucose in presence of other protease inhibitors: not altered

## MDL28170
[1]; 48 h, 100 μM ALLM (so in the source), 50 μM MDL28170
  inhibition of 20 mM glucose-stimulated insulin secretion: approximately 60%
